Results taken from article PMC11171523 (2024).

Experiments:
[1] = system: poly A–poly U (pApU, AU-RNA) (RNA, polymer) A/U; assay: UV melting at 260 nm; details: Na+ (sodium cacodylate, I = 0.05 M); pH 7; ratio [dye]/[polynucleotide] = 0.1; error ±0.5 °C; per base
[2] = system: poly A–poly U (pApU, AU-RNA) (RNA, polymer) A/U; assay: fluorimetric titration, Scatchard fit; details: Na+ (sodium cacodylate, I = 0.05 M); pH 7.0, 25 °C; dye 50 nM; n fixed at 0.2; polynucleotide as phosphate; per base
[3] = system: poly dAdT–poly dAdT (poly(dAdT)2, AT-DNA) (DNA, polymer) AT; assay: CD titration (induced CD); details: Na+ (sodium cacodylate, I = 0.05 M), pH 7
[4] = system: poly dGdC–poly dGdC (poly(dGdC)2, GC-DNA) (DNA, polymer) GC; assay: CD titration (induced CD); details: Na+ (sodium cacodylate, I = 0.05 M), pH 7
[5] = ratio [dye]/[polynucleotide] = 0.1 and 0.5, negative ICD at 308–324 nm

| ΔTm [1] | log Ks [2] | binding [3, 5] | binding [4, 5] | binding ([3]; ratio [dye]/[polynucleotide] = 0.5, weaker ICD than GC-DNA) | binding ([4]; ratio [dye]/[polynucleotide] = 0.5, strong negative ICD at 325 nm) | Structure (SMILES) |
| --- | --- | --- | --- | --- | --- | --- |
| +10.4 °C | 8.9 | – | – | – | – | C#CC[N+](C)(C)c1ccc(/C=C/c2cc(/C=C/c3ccc([N+](C)(C)CC#C)cc3)c(/C=C/c3ccc([N+](C)(C)CC#C)cc3)cc2/C=C/c2ccc([N+](C)(C)CC#C)cc2)cc1 |
| +18.1 °C | 8.6 | – | – | – | – | C#CC[N+](C)(C)c1ccc(/C=C/c2cc(/C=C/c3ccc([N+](C)(C)CC#C)cc3)cc(/C=C/c3ccc([N+](C)(C)CC#C)cc3)c2)cc1 |
| 0 °C | 8.6 | – | – | – | – | CCCC[N+](C)(CCCC)c1ccc(/C=C/c2cc(/C=C/c3ccc([N+](C)(CCCC)CCCC)cc3)c(/C=C/c3ccc([N+](C)(CCCC)CCCC)cc3)cc2/C=C/c2ccc([N+](C)(CCCC)CCCC)cc2)cc1 |
| +5.1 °C | 8.9 | yes | yes | – | – | CCCC[N+](C)(CCCC)c1ccc(/C=C/c2cc(/C=C/c3ccc([N+](C)(CCCC)CCCC)cc3)cc(/C=C/c3ccc([N+](C)(CCCC)CCCC)cc3)c2)cc1 |
| +1.7 °C | 7.6 | – | – | – | – | CCCC[n+]1ccc(/C=C/c2cc(/C=C/c3cc[n+](CCCC)cc3)c(/C=C/c3cc[n+](CCCC)cc3)cc2/C=C/c2cc[n+](CCCC)cc2)cc1 |
| +1.5 °C | 8.7 | – | – | – | – | CCCC[n+]1ccc(/C=C/c2cc(/C=C/c3cc[n+](CCCC)cc3)cc(/C=C/c3cc[n+](CCCC)cc3)c2)cc1 |
| +12.5 °C | 8.6 | – | – | – | – | C[N+](C)(C)c1ccc(/C=C/c2cc(/C=C/c3ccc([N+](C)(C)C)cc3)c(/C=C/c3ccc([N+](C)(C)C)cc3)cc2/C=C/c2ccc([N+](C)(C)C)cc2)cc1 |
| +23.2 °C | 8.9 | – | – | yes | yes | C[N+](C)(C)c1ccc(/C=C/c2cc(/C=C/c3ccc([N+](C)(C)C)cc3)cc(/C=C/c3ccc([N+](C)(C)C)cc3)c2)cc1 |
| +6.4 °C | 8.2 | – | – | – | – | C[n+]1ccc(/C=C/c2cc(/C=C/c3cc[n+](C)cc3)c(/C=C/c3cc[n+](C)cc3)cc2/C=C/c2cc[n+](C)cc2)cc1 |
| +8.5 °C | 8.7 | – | – | – | – | C[n+]1ccc(/C=C/c2cc(/C=C/c3cc[n+](C)cc3)cc(/C=C/c3cc[n+](C)cc3)c2)cc1 |
